Test results as given in PubChem BioAssay (NCI).
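Method: 48-hour compound exposure of cells in 96-well plates, five concentrations, linear interpolation of endpoints. The concentration for 50% growth inhibition is given as GI50. TGI is the concentration that stops growth completely.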

Tests used:
Test in all cases: NCI-60 cell line screen, 48 h
786-0 renal = tested on: 786-0 renal
A498 renal = tested on: A498 renal
A549 NSCLC = tested on: A549 NSCLC
ACHN renal = tested on: ACHN renal
BT-549 breast = tested on: BT-549 breast
CAKI-1 renal = tested on: CAKI-1 renal
CCRF-CEM leukemia = tested on: CCRF-CEM leukemia
COLO 205 colon = tested on: COLO 205 colon
DU-145 prostate = tested on: DU-145 prostate
EKVX NSCLC = tested on: EKVX NSCLC
HCC-2998 colon = tested on: HCC-2998 colon
HCT-116 colon = tested on: HCT-116 colon
HCT-15 colon = tested on: HCT-15 colon
HL-60(TB) leukemia = tested on: HL-60(TB) leukemia
HOP-62 NSCLC = tested on: HOP-62 NSCLC
HS 578T breast = tested on: HS 578T breast
HT29 colon = tested on: HT29 colon
IGROV1 ovarian = tested on: IGROV1 ovarian
K-562 leukemia = tested on: K-562 leukemia
KM12 colon = tested on: KM12 colon
LOX IMVI melanoma = tested on: LOX IMVI melanoma
M14 melanoma = tested on: M14 melanoma
MALME-3M melanoma = tested on: MALME-3M melanoma
MCF7 breast = tested on: MCF7 breast
MDA-MB-231 breast = tested on: MDA-MB-231 breast
MDA-MB-435 = tested on: MDA-MB-435
MOLT-4 leukemia = tested on: MOLT-4 leukemia
NCI-H226 lung = tested on: NCI-H226 lung
NCI-H23 lung = tested on: NCI-H23 lung
NCI-H460 lung = tested on: NCI-H460 lung
NCI-H522 lung = tested on: NCI-H522 lung
NCI/ADR-RES ovarian = tested on: NCI/ADR-RES ovarian
OVCAR-3 ovarian = tested on: OVCAR-3 ovarian
OVCAR-4 ovarian = tested on: OVCAR-4 ovarian
OVCAR-5 ovarian = tested on: OVCAR-5 ovarian
OVCAR-8 ovarian = tested on: OVCAR-8 ovarian
PC-3 prostate = tested on: PC-3 prostate
RPMI-8226 leukemia = tested on: RPMI-8226 leukemia
RXF 393 renal = tested on: RXF 393 renal
SF-268 CNS = tested on: SF-268 CNS
SF-295 CNS = tested on: SF-295 CNS
SF-539 CNS = tested on: SF-539 CNS
SK-MEL-2 melanoma = tested on: SK-MEL-2 melanoma
SK-MEL-28 melanoma = tested on: SK-MEL-28 melanoma
SK-MEL-5 melanoma = tested on: SK-MEL-5 melanoma
SK-OV-3 ovarian = tested on: SK-OV-3 ovarian
SN12C renal = tested on: SN12C renal
SNB-19 CNS = tested on: SNB-19 CNS
SNB-75 CNS = tested on: SNB-75 CNS
SR leukemia = tested on: SR leukemia
SW-620 colon = tested on: SW-620 colon
T-47D breast = tested on: T-47D breast
TK-10 renal = tested on: TK-10 renal
U251 CNS = tested on: U251 CNS
UACC-257 melanoma = tested on: UACC-257 melanoma
UACC-62 melanoma = tested on: UACC-62 melanoma
UO-31 renal = tested on: UO-31 renal

For `CC(=O)C1=C(O)C=C2Oc3c(C(=O)/C=C/c4cc(Cl)cc(Cl)c4)c(O)c(C)c(O)c3[C@]2(C)C1=O`, the GI50 (786-0 renal) was 534 nM, the TGI (786-0 renal) was 2320 nM and the GI50 (A498 renal) was 259 nM. For the same compound, the TGI (A498 renal) was 500 nM, the GI50 (A549 NSCLC) was 566 nM and the TGI (A549 NSCLC) was 2980 nM. The GI50 (ACHN renal) was 513 nM, the TGI (ACHN renal) was 14200 nM and the GI50 (BT-549 breast) was 395 nM. The TGI (BT-549 breast) was 961 nM, the GI50 (CAKI-1 renal) was 502 nM and the TGI (CAKI-1 renal) was 4190 nM. The GI50 (CCRF-CEM leukemia) was 498 nM, the TGI (CCRF-CEM leukemia) was 2650 nM and the GI50 (COLO 205 colon) was 408 nM. For the same compound, the TGI (COLO 205 colon) was 988 nM, the GI50 (DU-145 prostate) was 622 nM and the TGI (DU-145 prostate) was 5580 nM. The GI50 (EKVX NSCLC) was 444 nM, the TGI (EKVX NSCLC) was 2270 nM and the GI50 (HCC-2998 colon) was 667 nM. It also gave a TGI (HCC-2998 colon) of 2690 nM, a GI50 (HCT-116 colon) of 465 nM and a TGI (HCT-116 colon) of 1380 nM. For the same compound, the GI50 (HCT-15 colon) was 539 nM, the TGI (HCT-15 colon) was 2540 nM and the GI50 (HL-60(TB) leukemia) was 371 nM. It also gave a TGI (HL-60(TB) leukemia) of 870 nM, a GI50 (HOP-62 NSCLC) of 480 nM and a TGI (HOP-62 NSCLC) of 1670 nM. It also gave a GI50 (HS 578T breast) of 641 nM, a TGI (HS 578T breast) of 3890 nM and a GI50 (HT29 colon) of 470 nM. For the same compound, the TGI (HT29 colon) was 1560 nM, the GI50 (IGROV1 ovarian) was 673 nM and the TGI (IGROV1 ovarian) was 4690 nM. It also gave a GI50 (K-562 leukemia) of 497 nM, a TGI (K-562 leukemia) of 15000 nM and a GI50 (KM12 colon) of 460 nM. It also gave a TGI (KM12 colon) of 1760 nM, a GI50 (LOX IMVI melanoma) of 512 nM and a TGI (LOX IMVI melanoma) of 1790 nM. The GI50 (M14 melanoma) was 567 nM, the TGI (M14 melanoma) was 2280 nM and the GI50 (MALME-3M melanoma) was 335 nM. It also gave a TGI (MALME-3M melanoma) of 739 nM, a GI50 (MCF7 breast) of 458 nM and a TGI (MCF7 breast) of 1720 nM. The GI50 (MDA-MB-231 breast) was 541 nM, the TGI (MDA-MB-231 breast) was 1850 nM and the GI50 (MDA-MB-435) was 493 nM. For the same compound, the TGI (MDA-MB-435) was 1870 nM, the GI50 (MOLT-4 leukemia) was 409 nM and the TGI (MOLT-4 leukemia) was 1330 nM. For the same compound, the GI50 (NCI-H226 lung) was 1210 nM, the TGI (NCI-H226 lung) was 5490 nM and the GI50 (NCI-H23 lung) was 500 nM. The TGI (NCI-H23 lung) was 2050 nM, the GI50 (NCI-H460 lung) was 528 nM and the TGI (NCI-H460 lung) was 1770 nM. It also gave a GI50 (NCI-H522 lung) of 334 nM, a TGI (NCI-H522 lung) of 919 nM and a GI50 (NCI/ADR-RES ovarian) of 537 nM. The TGI (NCI/ADR-RES ovarian) was 1960 nM, the GI50 (OVCAR-3 ovarian) was 417 nM and the TGI (OVCAR-3 ovarian) was 1230 nM. It also gave a GI50 (OVCAR-4 ovarian) of 565 nM, a TGI (OVCAR-4 ovarian) of 7170 nM and a GI50 (OVCAR-5 ovarian) of 720 nM. For the same compound, the TGI (OVCAR-5 ovarian) was 8570 nM, the GI50 (OVCAR-8 ovarian) was 496 nM and the TGI (OVCAR-8 ovarian) was 2260 nM. It also gave a GI50 (PC-3 prostate) of 537 nM, a TGI (PC-3 prostate) of 2040 nM and a GI50 (RPMI-8226 leukemia) of 452 nM. For the same compound, the TGI (RPMI-8226 leukemia) was 1140 nM, the GI50 (RXF 393 renal) was 541 nM and the TGI (RXF 393 renal) was 1620 nM. It also gave a GI50 (SF-268 CNS) of 670 nM, a TGI (SF-268 CNS) of 3380 nM and a GI50 (SF-295 CNS) of 360 nM. It also gave a TGI (SF-295 CNS) of 887 nM, a GI50 (SF-539 CNS) of 552 nM and a TGI (SF-539 CNS) of 2260 nM. It also gave a GI50 (SK-MEL-2 melanoma) of 365 nM, a TGI (SK-MEL-2 melanoma) of 924 nM and a GI50 (SK-MEL-28 melanoma) of 637 nM. It also gave a TGI (SK-MEL-28 melanoma) of 2760 nM, a GI50 (SK-MEL-5 melanoma) of 424 nM and a TGI (SK-MEL-5 melanoma) of 1050 nM. It also gave a GI50 (SK-OV-3 ovarian) of 449 nM, a TGI (SK-OV-3 ovarian) of 1330 nM and a GI50 (SN12C renal) of 534 nM. The TGI (SN12C renal) was 2450 nM, the GI50 (SNB-19 CNS) was 582 nM and the TGI (SNB-19 CNS) was 3060 nM. For the same compound, the GI50 (SNB-75 CNS) was 1660 nM, the TGI (SNB-75 CNS) was 4060 nM and the GI50 (SR leukemia) was 459 nM. The TGI (SR leukemia) was 4350 nM, the GI50 (SW-620 colon) was 527 nM and the TGI (SW-620 colon) was 2210 nM. The GI50 (T-47D breast) was 435 nM, the TGI (T-47D breast) was 1360 nM and the GI50 (TK-10 renal) was 446 nM. For the same compound, the TGI (TK-10 renal) was 1680 nM, the GI50 (U251 CNS) was 410 nM and the TGI (U251 CNS) was 1060 nM. For the same compound, the GI50 (UACC-257 melanoma) was 535 nM, the TGI (UACC-257 melanoma) was 2500 nM and the GI50 (UACC-62 melanoma) was 434 nM. For the same compound, the TGI (UACC-62 melanoma) was 1620 nM, the GI50 (UO-31 renal) was 392 nM and the TGI (UO-31 renal) was 1030 nM.
